The data set is described as follows: Evaluation of solution appearance. The class given is physicochemical. The conditions noted are these: solution adjusted to the five-kind MIC, 4 mL tube, allowed to stand still, visually observed. The protocol:
[…] of each of the test microbial liquids was dispensed onto a microplate, and further, […] of each of antibacterial and antifungal solutions, in which the antibacterial and antifungal compositions prepared in Examples 1 and 2 and Comparative Examples 1 to 11 were adjusted to various concentrations with a culture medium, was added to the test microbial liquid, followed by stirring, to obtain a mixed solution. In this case, the pH of each of the antibacterial and antifungal solutions was from 6.89 to 7.24. Next, in each of the mixed solutions, culture was performed as follows. The bacterium mixed solution was cultured in a constant-temperature reservoir at 37° C. for 24 hours. The yeast mixed solution was cultured in the constant-temperature reservoir at 25° C. for 3 days. The mold mixed solution was cultured in the constant-temperature reservoir at 25° C. for 1 week. […] In addition, the appearance of the antibacterial and antifungal solution was evaluated as follows. […] The appearance of the solution was visually observed and evaluated in accordance with the following criteria. […]

For `O=C([O-])c1ccccc1.[Na+]` [compound 7, sodium benzoate], the “Evaluation of solution appearance” value is “◯”. The result for `OCc1ccccc1` [Comparative Example 6, benzyl alcohol] reads “◯”.

The record behind these values is US11395486B2, “Antibacterial and antifungal composition” (ADEKA CORPORATION, priority 2017, dated 2022).
